Laboratory results as given in patent US4607047A, “N-(allyl-2-pyrrolidinylmethyl) 2-methoxy-4-amino-5-methylsulfamoyl benzamide anti platelets aggregation agent” (Societe d'Etudes Scientifiques et Industrielles de …, priority 1983, dated 1986).

How the values were obtained:
platelets [1] = test: platelet aggregation caused by adenosine phosphate; assay type: cell-based; settings: in vitro, rabbits
Method: (§1) The following pharmacological results illustrate the activity of the compound on platelet aggregation, the potentiation of such aggregation, the uptake of serotonin (the chemical name for which is 5-hydroxytryptamine) by the platelets and the release reaction of such platelets. This study was carried out on rabbits:
An inhibiting effect on the aggregation of platelets, caused by adenosine phosphate is observed.

platelets [2] = test: potentiation (induced by 5-hydroxytryptamine) of platelet aggregation caused by adenosinephosphate; assay type: cell-based, rabbits; settings: rabbit platelets
Method: as §1
It is 63 times less powerful than METHYSERGIDE as a 5-hydroxytryptamine antagonist.

platelets [3] = test: potentiation (induced by adrenaline) of platelet aggregation caused by adenosinephosphate; assay type: cell-based, rabbits; settings: rabbit platelets
Method: as §1
It is 20 times less powerful than PHENTOLAMINE as an adrenaline antagonist.

[4] = target: T1, alpha-2 receptors (Oryctolagus cuniculus); test: potentiation (induced by CLONIDINE) of platelet aggregation caused by adenosinephosphate; assay type: cell-based, rabbits; settings: rabbit platelets; read-out: IC50, anti-adrenergic effect (potentiation induced by CLONIDINE of platelet aggregation caused by adenosinephosphate)
T1 construct: potentiation (induced by CLONIDINE) of platelet aggregation caused by adenosinephosphate; endogenous in cells; host or cells: rabbit blood platelets
Description: (§2) The following pharmacological results illustrate the activity of the compound on platelet aggregation, the potentiation of such aggregation, the uptake of serotonin (the chemical name for which is 5-hydroxytryptamine) by the platelets and the release reaction of such platelets.

alpha-2 receptors = target: T2, alpha-2 receptors (Oryctolagus cuniculus, UniProt Q5ZQK3); test: as above; assay type: cell-based, rabbits; settings: rabbit platelets
T2 construct: potentiation (induced by CLONIDINE) of platelet aggregation caused by adenosinephosphate; endogenous in cells; host or cells: rabbit blood platelets
T2 sequence (Q5ZQK3 1-451): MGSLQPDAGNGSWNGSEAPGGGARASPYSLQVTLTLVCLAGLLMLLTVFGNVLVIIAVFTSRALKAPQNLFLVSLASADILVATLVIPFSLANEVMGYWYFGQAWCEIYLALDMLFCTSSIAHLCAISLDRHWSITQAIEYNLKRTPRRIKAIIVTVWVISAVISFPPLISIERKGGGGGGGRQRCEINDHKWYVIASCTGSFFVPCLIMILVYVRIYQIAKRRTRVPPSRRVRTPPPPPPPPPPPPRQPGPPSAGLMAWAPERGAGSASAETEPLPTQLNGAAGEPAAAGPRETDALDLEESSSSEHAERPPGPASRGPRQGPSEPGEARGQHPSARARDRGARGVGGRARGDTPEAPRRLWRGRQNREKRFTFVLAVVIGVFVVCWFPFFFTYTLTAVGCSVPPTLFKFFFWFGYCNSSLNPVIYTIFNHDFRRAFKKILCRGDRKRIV
Description: as §2

platelets [5] = test: uptake of carbon 14-marked 5-hydroxytryptamine by platelets; assay type: cell-based; settings: Oryctolagus cuniculus, Platelet; rabbit platelets
Description: as §2

platelets [6] = test: platelet aggregation induced by collagen; assay type: cell-based, rabbits; settings: rabbit platelets
Method: as §1
(§3) The compound counteracts the action of collagen on the platelets.
a. prolongation of the typical latency phase which precedes aggregation of the platelets induced by collagen,
b. inhibition of the aggregation effect induced by collagen, and […]

platelets [7] = test: release of carbon 14-marked 5-hydroxytryptamine induced by collagen; assay type: cell-based, rabbits; settings: rabbit platelets
Method: as §1, §3
The compound of the invention is 13 times more powerful than aspirin, which is well known for inhibiting the platelet release reaction.

rabbit platelets = test: release of carbon 14-marked 5-hydroxytryptamine induced by adrenaline; assay type: cell-based; settings: Oryctolagus cuniculus, Platelet, read-out: IC50, inhibition of release of carbon 14-marked 5-hydroxytryptamine induced by adrenaline
Description: as §2

human platelets [8] = test: aggregation induced by thrombin, human platelets in vitro; assay type: cell-based; settings: thrombin 3.3 units/ml PRP
Method: (§4) All those results agreeing, the following study was carried on human platelets in vitro, before proceeding to therapeutic applications. It relates to the effects of the compound according to the invention, in regard to aggregation induced by thrombin, collagen, adrenaline, and 5-hydroxytryptamine, and with regard to the release of carbon 14-marked 5-hydroxytryptamine, by thrombin, adrenaline and collagen.

human platelets [9] = test: aggregation induced by collagen, human platelets in vitro; assay type: cell-based
Method: as §4

human platelets [10] = test: aggregation induced by adrenaline, human platelets in vitro; assay type: cell-based
Method: as §4

human platelets [11] = test: aggregation induced by 5-hydroxytryptamine, human platelets in vitro; assay type: cell-based
Method: as §4

human platelets [12] = test: uptake of carbon 14-marked 5-hydroxytryptamine, human platelets in vitro; assay type: cell-based
human platelets [13] = test: release of carbon 14-marked 5-hydroxytryptamine induced by thrombin, human platelets; assay type: cell-based; settings: human platelets in vitro
Method: as §4

human platelets [14] = test: release of marked 5-hydroxytryptamine induced by collagen, human platelets; assay type: cell-based; settings: human platelets in vitro
Method: as §4

human platelets [15] = test: platelet release reaction induced by adrenaline, human platelets; assay type: cell-based; settings: human platelets in vitro; witnessed by inhibition of second phase of aggregation
Method: as §4

vascular thrombus = test: in vivo formation of a caused vascular thrombus; settings: animals
[16] = tested on: central dopaminergic receptors; test: action on central dopaminergic receptors; apomorphine climbing and stereotypies; assay type: in vivo, rodents
Description: Although under those conditions the pathogenetic role of platelet dysfunction has not been definitively established, various medicaments which are assumed to act by interfering with the platelet function have been widely used. Reference may be made for example to aspirin, dipyridamole and sulphinpyrazone. […] It can be said therefore that the undesirable neurological effects are very limited with that medicament.

C=CCN1CCCC1CNC(=O)c1cc(S(=O)(=O)NC)c(N)cc1OC (stereo not shown) [the compound, N-(1-allyl-2-pyrrolidinylmethyl) 2-methoxy 4-amino 5-methylsulphamoyl benzamide]
platelet aggregation caused by adenosine phosphate (platelets [1]): inhibits | IC50 (platelets [2]; Oryctolagus cuniculus, Platelet, read-out: IC50, inhibition of potentiation (induced by 5-hydroxytryptamine) of platelet aggregation caused by adenosinephosphate): 19 µM | times less powerful than METHYSERGIDE as a 5-hydroxytryptamine antagonist (platelets [2]): 63 times | IC50 (platelets [3]; Oryctolagus cuniculus, Platelet, read-out: IC50, inhibition of potentiation (induced by adrenaline) of platelet aggregation caused by adenosinephosphate): 10 µM | times less powerful than PHENTOLAMINE as an adrenaline antagonist (platelets [3]): 20 times | IC50 [4]: 29.5 µM | activity relative to MIANSERINE as an alpha-2 antagonist (alpha-2 receptors): twice as active | IC50 (platelets [5]): > 100 µM | aggregation effect induced by collagen (platelets [6]): inhibition | latency phase preceding aggregation of platelets induced by collagen (platelets [6]): prolongation | IC50 (platelets [7]; Oryctolagus cuniculus, Platelet, read-out: IC50, inhibition of release of carbon 14-marked 5-hydroxytryptamine induced by collagen): 1.8 µM | times more powerful than aspirin, platelet release reaction (platelets [7]; collagen-induced release): 13 times | IC50 (rabbit platelets): 100 µM | primary aggregation of platelets induced by thrombin (human platelets [8]): does not influence | second phase of aggregation induced by thrombin (human platelets [8]): inhibits | aggregation of platelets induced by collagen (human platelets [9]): inhibits | first and second phases of aggregation of platelets induced by adrenaline (human platelets [10]): inhibits both | aggregation of platelets induced by 5-hydroxytryptamine (human platelets [11]): inhibits | uptake of carbon 14-marked 5-hydroxytryptamine by platelets (human platelets [12]): does not influence | release of carbon 14-marked 5-hydroxytryptamine induced by thrombin (human platelets [13]): inhibits | release of marked 5-hydroxytryptamine induced by collagen (human platelets [14]): inhibits | release reaction of the platelets induced by adrenaline (human platelets [15]): inhibits | conditions of formation of a caused vascular thrombus (anti-aggregating effect) (vascular thrombus): modifies the conditions of formation | action on the central dopaminergic receptors ([16]; animals): only a very weak action | doses to counteract apomorphine effects (climbing and stereotypies) ([16]; rodents): high doses are required
